Results reported in patent US9999650B2, “Peptide and peptidomimetic inhibitors” (Ra Pharmaceuticals, Inc., priority 2012, dated 2018).
Like-named read-outs stand apart in the source and are kept apart here. Numbered stars: 1 amine (or outer) side, 2 acyl side, 3 side chain; on linkers, the order of the positions; unused ones are H or OH. Bridge positions count the residues as written; N and C are the ends. Square brackets hold non-standard residues; d marks the D form. Peptide text beside a SMILES is read from it. mXylylene = c1cc(C[*:1])cc(C[*:2])c1; Phg = N[C@H](C(=O)O)c1ccccc1; Tle = CC(C)(C)[C@H](N)C(=O)O; NMeS = CN[C@@H](CO)C(=O)O; Nva = CCC[C@H](N)C(=O)O

Assays:
Format in all cases: biochemical
Factor Xa = target: T1, Factor Xa (Homo sapiens, UniProt P00742); experiment: Inhibitor specificity IC50 assay, Factor Xa (Boc-Gln-Gly-Arg-AMC); conditions: substrate Boc-Gln-Gly-Arg-AMC
T1 construct: Factor Xa (Enzyme Research Laboratories, South Bend, Ind.); purchased Enzyme Research Laboratories
Procedure: (§1) Activated human plasma kallikrein (Enzyme Research Laboratories, HPKa 1303) was reacted with H-Pro-Phe-Arg-7-amido-4-methylcoumarin (H-Pro-Pre-Arg-AMC) (a fluorogenic substrate for plasma as well as pancreatic and urinary kallikreins; Bachem I-1295) and candidate inhibitory peptides to determine the IC50 of the inhibitor.
(§2) Ten 8-fold serial dilutions of peptides (10 mM DMSO stocks) were performed in DMSO and then added to TCNB (50 mM Tris-HCl pH 7.2, 150 mM NaCl, 10 mM CaCl2, 0.05% Brij-35) and sonicated. 50 μL of the peptide dilutions were added to microtitre plates (96 well, black non-binding surface, Corning, 3650) and incubated for 5 minutes at room temperature with 4 nM activated human kallikrein (final concentration after addition of fluorogenic substrate: 1 nM). The samples were then incubated for 1 hour at room temperature with 2 mM H-Pro-Phe-Arg-AMC (final concentration 500 μM). Relative Fluorescence Units (RFU) were measured at excitation/emission 360 nm/460 nm by a SpectraMax M3.
(§3) To determine the specificity of peptide inhibitors, an IC50 assay, as described in Example 4, was performed on a variety of serine proteases related to human plasma kallikrein. The enzymes tested include mouse plasma kallikrein (R&D Systems, Minneapolis, Minn.), and the human enzymes Factor VIIa (Enzyme Research Laboratories, South Bend, Ind.), Factor Xa (Enzyme Research Laboratories, South Bend, Ind.), Factor XIa (Enzyme Research Laboratories, South Bend, Ind.), Factor XIIa (Enzyme Research Laboratories, South Bend, Ind.), tissue kallikrein KLK13 (R&D Systems, Minneapolis, Minn.), thrombin (Enzyme Research Laboratories, South Bend, Ind.) and plasmin (Enzyme Research Laboratories, South Bend, Ind.).
(§4) Each enzyme was tested with the following specific fluorgenic substrates (available from Bachem; Torrance, Calif.): mouse plasma kallikrein (Pro-Phe-Arg-AMC), Factor VIIa (Boc-Val-Pro-Arg-AMC), Factor Xa (Boc-Gln-Gly-Arg-AMC), Factor XIa (Boc-Gln-Gly-Arg-AMC), Factor XIIa (Boc-Gln-Gly-Arg-AMC), KLK13 (Boc-Val-Pro-Arg-AMC), thrombin (Boc-Val-Pro-Arg-AMC) and plasmin (Boc-Val-Leu-Lys-AMC). Peptide inhibitors R2006, R2010, R2012, R2019, R2023, R2030, R2036, R2041, R2047, R2104 and R2051 were assayed.

Factor XIa = target: T2, Factor XIa (Homo sapiens, UniProt P03951); experiment: Inhibitor specificity IC50 assay, Factor XIa (Boc-Gln-Gly-Arg-AMC); conditions: substrate Boc-Gln-Gly-Arg-AMC
T2 construct: Factor XIa (Enzyme Research Laboratories, South Bend, Ind.); purchased Enzyme Research Laboratories
Procedure: as §1, §2, §3, §4

Factor XIIa = target: T3, Factor XIIa (Homo sapiens, UniProt P00748); experiment: Inhibitor specificity IC50 assay, Factor XIIa (Boc-Gln-Gly-Arg-AMC); conditions: substrate Boc-Gln-Gly-Arg-AMC
T3 construct: Factor XIIa (Enzyme Research Laboratories, South Bend, Ind.); purchased Enzyme Research Laboratories
T3 sequence (P00748 373-615 limits assumed): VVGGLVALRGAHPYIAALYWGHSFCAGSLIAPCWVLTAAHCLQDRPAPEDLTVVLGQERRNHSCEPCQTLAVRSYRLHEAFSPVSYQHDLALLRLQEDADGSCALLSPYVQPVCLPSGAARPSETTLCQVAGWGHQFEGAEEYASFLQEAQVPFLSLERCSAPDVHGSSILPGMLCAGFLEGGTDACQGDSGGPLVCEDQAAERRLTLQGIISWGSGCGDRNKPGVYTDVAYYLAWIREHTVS
Procedure: as §1, §2, §3, §4

Factor VIIa = target: T4, Factor VIIa (Homo sapiens, UniProt P08709); experiment: Inhibitor specificity IC50 assay, Factor VIIa (Boc-Val-Pro-Arg-AMC); conditions: substrate Boc-Val-Pro-Arg-AMC
T4 construct: Factor VIIa (Enzyme Research Laboratories, South Bend, Ind.); purchased Enzyme Research Laboratories
T4 sequence (P08709 61-212 limits assumed): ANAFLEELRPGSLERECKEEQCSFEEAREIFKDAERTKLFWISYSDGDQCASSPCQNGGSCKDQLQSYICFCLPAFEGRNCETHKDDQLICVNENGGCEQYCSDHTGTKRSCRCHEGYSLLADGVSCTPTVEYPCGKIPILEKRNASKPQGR
T4 sequence (P08709 213-466 limits assumed): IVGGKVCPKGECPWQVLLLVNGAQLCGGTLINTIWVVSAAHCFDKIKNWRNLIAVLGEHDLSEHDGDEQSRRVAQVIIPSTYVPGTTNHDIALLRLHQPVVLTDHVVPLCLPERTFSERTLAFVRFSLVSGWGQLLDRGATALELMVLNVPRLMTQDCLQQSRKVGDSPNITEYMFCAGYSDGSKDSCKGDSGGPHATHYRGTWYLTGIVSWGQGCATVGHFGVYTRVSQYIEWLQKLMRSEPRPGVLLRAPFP
Procedure: as §2, §3, §4

human plasma kallikrein = target: T5, human plasma kallikrein (Homo sapiens, UniProt P03952); experiment: Enzyme inhibition assay (fluorogenic substrate H-Pro-Phe-Arg-AMC)
T5 construct: purchased Enzyme Research Laboratories HPKa 1303
Procedure, shortened: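 IC50 was determined from AMC fluorescence (ex 360/em 460 nm) after 1 h of reaction at room temperature with 500 μM final substrate. Before this, peptides in ten 8-fold serial dilutions were incubated 5 min with 1 nM final activated kallikrein. The buffer was Tris-HCl pH 7.2 containing NaCl, CaCl2 and Brij-35.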

thrombin = target: T6, thrombin (Homo sapiens, UniProt P00734); experiment: Inhibitor specificity IC50 assay, thrombin (Boc-Val-Pro-Arg-AMC); conditions: substrate Boc-Val-Pro-Arg-AMC
T6 construct: thrombin (Enzyme Research Laboratories, South Bend, Ind.); purchased Enzyme Research Laboratories
Procedure: as §1, §2, §3, §4

plasmin = target: T7, plasmin (Homo sapiens, UniProt P00747); experiment: Inhibitor specificity IC50 assay, plasmin (Boc-Val-Leu-Lys-AMC); conditions: substrate Boc-Val-Leu-Lys-AMC
T7 construct: plasmin (Enzyme Research Laboratories, South Bend, Ind.); purchased Enzyme Research Laboratories
Procedure: as §1, §2, §3, §4

tissue kallikrein KLK13 = target: T8, tissue kallikrein KLK13 (Homo sapiens, UniProt Q9UKR3); experiment: Inhibitor specificity IC50 assay, KLK13 (Boc-Val-Pro-Arg-AMC); conditions: substrate Boc-Val-Pro-Arg-AMC
T8 construct: purchased R&D Systems
T8 sequence (Q9UKR3 17-277): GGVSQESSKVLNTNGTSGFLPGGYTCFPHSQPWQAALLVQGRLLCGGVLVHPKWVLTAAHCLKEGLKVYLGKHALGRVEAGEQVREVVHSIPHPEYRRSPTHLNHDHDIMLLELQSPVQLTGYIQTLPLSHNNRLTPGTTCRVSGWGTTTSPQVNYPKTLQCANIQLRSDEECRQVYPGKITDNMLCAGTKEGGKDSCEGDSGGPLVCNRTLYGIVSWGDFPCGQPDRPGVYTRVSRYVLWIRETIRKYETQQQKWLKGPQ
Procedure: as §1, §2, §3, §4

[1] = Kallikrein inhibitory activity, 1 nM activated human kallikrein, 500 μM H-Pro-Phe-Arg-AMC, 1 hour room temperature, read-out: Avg. IC50

T1 sequence (P00742 41-179 limits assumed): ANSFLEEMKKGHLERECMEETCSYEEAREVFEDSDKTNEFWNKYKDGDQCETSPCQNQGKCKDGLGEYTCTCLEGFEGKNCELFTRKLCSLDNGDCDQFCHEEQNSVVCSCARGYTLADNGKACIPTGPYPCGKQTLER
T1 sequence (P00742 235-488 limits assumed): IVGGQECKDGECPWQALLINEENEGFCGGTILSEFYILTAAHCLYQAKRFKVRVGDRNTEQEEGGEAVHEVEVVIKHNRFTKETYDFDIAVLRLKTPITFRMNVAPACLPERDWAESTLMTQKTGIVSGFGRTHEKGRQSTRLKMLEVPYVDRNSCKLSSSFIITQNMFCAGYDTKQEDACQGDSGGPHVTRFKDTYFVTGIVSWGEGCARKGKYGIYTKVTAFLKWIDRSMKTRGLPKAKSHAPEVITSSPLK
T7 sequence (P00747 97-580 limits assumed): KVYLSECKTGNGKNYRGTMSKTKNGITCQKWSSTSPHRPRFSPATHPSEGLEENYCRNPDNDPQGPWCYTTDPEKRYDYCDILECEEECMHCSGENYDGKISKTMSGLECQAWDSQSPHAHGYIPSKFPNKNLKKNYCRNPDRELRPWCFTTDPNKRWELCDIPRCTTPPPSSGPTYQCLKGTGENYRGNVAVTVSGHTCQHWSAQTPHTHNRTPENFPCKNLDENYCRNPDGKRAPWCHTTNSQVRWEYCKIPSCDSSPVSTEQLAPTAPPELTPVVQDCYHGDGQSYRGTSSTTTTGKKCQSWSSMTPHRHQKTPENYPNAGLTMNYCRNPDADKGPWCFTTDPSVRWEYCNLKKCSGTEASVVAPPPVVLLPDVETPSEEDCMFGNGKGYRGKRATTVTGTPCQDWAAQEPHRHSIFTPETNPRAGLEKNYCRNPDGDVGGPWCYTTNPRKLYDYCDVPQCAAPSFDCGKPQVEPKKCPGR
T7 sequence (P00747 581-810 limits assumed): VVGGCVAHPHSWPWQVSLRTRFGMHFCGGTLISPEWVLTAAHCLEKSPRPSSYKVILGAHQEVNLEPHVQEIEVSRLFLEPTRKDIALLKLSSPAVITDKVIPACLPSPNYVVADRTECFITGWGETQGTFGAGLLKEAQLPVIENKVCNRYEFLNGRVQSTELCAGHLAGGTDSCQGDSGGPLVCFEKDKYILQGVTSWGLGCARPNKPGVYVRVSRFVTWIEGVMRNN
T2 sequence (P03951 19-387 limits assumed): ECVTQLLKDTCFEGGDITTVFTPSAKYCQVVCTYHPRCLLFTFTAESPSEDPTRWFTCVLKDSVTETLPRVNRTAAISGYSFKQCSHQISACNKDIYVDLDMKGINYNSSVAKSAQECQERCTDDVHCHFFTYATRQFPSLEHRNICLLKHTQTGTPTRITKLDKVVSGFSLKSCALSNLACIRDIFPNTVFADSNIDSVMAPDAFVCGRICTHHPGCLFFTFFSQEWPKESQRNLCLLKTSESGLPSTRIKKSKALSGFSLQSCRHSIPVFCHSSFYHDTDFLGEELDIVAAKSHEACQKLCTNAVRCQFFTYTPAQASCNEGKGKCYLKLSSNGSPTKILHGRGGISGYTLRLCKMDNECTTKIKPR
T2 sequence (P03951 388-625 limits assumed): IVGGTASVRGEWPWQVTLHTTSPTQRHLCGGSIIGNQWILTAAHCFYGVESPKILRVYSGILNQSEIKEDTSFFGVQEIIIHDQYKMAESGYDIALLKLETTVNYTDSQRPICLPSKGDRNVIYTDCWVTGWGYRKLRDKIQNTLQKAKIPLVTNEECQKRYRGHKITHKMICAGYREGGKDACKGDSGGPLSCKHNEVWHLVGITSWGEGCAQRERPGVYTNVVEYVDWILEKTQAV
T5 sequence (P03952 20-390 limits assumed): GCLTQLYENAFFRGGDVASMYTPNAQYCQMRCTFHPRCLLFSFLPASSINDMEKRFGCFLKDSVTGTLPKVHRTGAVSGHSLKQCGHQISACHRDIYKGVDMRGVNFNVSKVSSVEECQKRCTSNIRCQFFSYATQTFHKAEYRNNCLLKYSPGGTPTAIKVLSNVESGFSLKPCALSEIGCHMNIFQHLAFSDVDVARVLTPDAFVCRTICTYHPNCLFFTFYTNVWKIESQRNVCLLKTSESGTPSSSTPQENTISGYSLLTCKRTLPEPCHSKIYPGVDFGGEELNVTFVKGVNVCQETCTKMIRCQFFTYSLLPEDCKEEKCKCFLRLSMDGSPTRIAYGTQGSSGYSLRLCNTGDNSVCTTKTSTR
T5 sequence (P03952 391-638 limits assumed): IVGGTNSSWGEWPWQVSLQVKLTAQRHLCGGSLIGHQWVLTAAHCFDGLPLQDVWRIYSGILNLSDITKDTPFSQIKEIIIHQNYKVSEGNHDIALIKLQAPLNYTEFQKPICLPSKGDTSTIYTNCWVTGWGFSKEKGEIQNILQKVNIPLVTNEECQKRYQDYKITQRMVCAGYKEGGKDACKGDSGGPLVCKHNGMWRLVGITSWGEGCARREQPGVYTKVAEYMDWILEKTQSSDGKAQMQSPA

| SMILES | IC50 (Factor Xa) | IC50 (Factor XIa) | IC50 (Factor XIIa) | IC50 (Factor VIIa) | IC50 (human plasma kallikrein; [1]) | IC50 (thrombin) | IC50 (plasmin) | IC50 (tissue kallikrein KLK13) | IC50 (human plasma kallikrein; Inhibitor specificity table, read-out: Human Kallikrein IC50) |
| --- | --- | --- | --- | --- | --- | --- | --- | --- | --- |
| CC(=O)N[C@H]1CSCc2cccc(c2)CSC[C@@H](C(=O)N[C@@H](CCCNC(=N)N)C(=O)N[C@H](C(N)=O)C(C)(C)C)NC(=O)[C@H](c2ccccc2)NC(=O)[C@H](CO)NC(=O)[C@H](C)NC1=O [Compound R2036, [mXylyl(1,5)]Ac-CAS-Phg-CR-Tbg-NH2] (Ac-CAS[Phg]CR[Tle]-NH2; linker 1-5 via mXylylene) | > 7 µM | > 4.8 µM | > 100 µM | > 100 µM | 0.0064 µM | > 100 µM | > 19.5 µM | > 100 µM |  |
| CSCC[C@H](N)C(=O)N[C@H]1CSCc2cccc(c2)CSC[C@@H](C(=O)N[C@@H](CCCNC(=N)N)C(=O)N[C@H](C(N)=O)C(C)C)NC(=O)[C@H](c2ccccc2)NC(=O)[C@H](CO)NC(=O)[C@H](CCC(=O)O)NC1=O [Compound R2012, [mXylyl(2,6)]MCES-Phg-CRV-NH2] (H-MCES[Phg]CRV-NH2; linker 2-6 via mXylylene; N-terminus assumed) |  | > 8.3 µM |  |  | 0.0083 µM |  |  | > 100 µM |  |
| CCC[C@H](N)C(=O)N[C@H]1CSCc2cccc(c2)CSC[C@@H](C(=O)N[C@@H](CCCNC(=N)N)C(=O)N[C@H](C(N)=O)C(C)(C)C)NC(=O)[C@H](c2ccccc2)NC(=O)[C@@H]2CCCN2C(=O)[C@H](CCC(=O)O)NC1=O [Compound R2030, [mXylyl(2,6)]Nvl-CEP-Phg-CR-Tbg-NH2] (H-[Nva]CEP[Phg]CR[Tle]-NH2; linker 2-6 via mXylylene) | > 100 µM | > 10.4 µM | > 100 µM | > 100 µM | 0.025 µM | > 100 µM | > 100 µM | > 100 µM |  |
| CC[C@H](C)[C@@H]1NC(=O)[C@H](CO)NC(=O)[C@H](CCC(=O)O)NC(=O)[C@@H](NC(C)=O)CSCc2cccc(c2)CSC[C@@H](C(=O)N[C@@H](CCCNC(=N)N)C(=O)N[C@H](C(N)=O)C(C)C)NC1=O [Compound R2023, [mXylyl(1,5)]Ac-CESICRV-NH2] (Ac-CESICRV-NH2; linker 1-5 via mXylylene) | > 7 µM | > 12.1 µM | > 100 µM | > 100 µM | 0.019 µM | > 100 µM | > 100 µM | > 100 µM |  |
| CSCC[C@H](N)C(=O)N[C@@H](CS)C(=O)N[C@@H](CC(N)=O)C(=O)N[C@@H](Cc1ccc(O)cc1)C(=O)N[C@@H](Cc1c[nH]c2ccccc12)C(=O)N[C@@H](CO)C(=O)N1CCC[C@H]1C(=O)N[C@@H](Cc1c[nH]c2ccccc12)C(=O)N[C@H](C(=O)N[C@@H](CCC(=O)O)C(=O)N[C@@H](CS)C(=O)N[C@@H](CO)C(=O)N[C@@H](C)C(N)=O)[C@@H](C)O [Compound R2104, MCNYWSPWTECSA-NH2] (H-MCNYWSPWTECSA-NH2) | > 100 µM | > 5 µM | > 100 µM | > 100 µM | 0.0034 µM | > 100 µM |  | > 100 µM |  |
| CC[C@H](C)[C@@H]1NC(=O)[C@H](CO)NC(=O)[C@H](CCC(=O)O)NC(=O)[C@@H](NC(=O)[C@@H](N)CCSC)CSCc2cccc(c2)CSC[C@@H](C(=O)N[C@@H](CCCNC(=N)N)C(=O)N[C@H](C(N)=O)C(C)C)NC1=O [Compound R2006, [mXylyl(2,6)]MCESICRV-NH2] (H-MCESICRV-NH2; linker 2-6 via mXylylene) | > 7 µM | > 11.6 µM | > 100 µM | > 100 µM |  | > 100 µM | > 100 µM | > 100 µM | 0.025 µM |
| CC[C@H](C)[C@@H]1NC(=O)[C@H](CO)N(C)C(=O)[C@H](CCC(=O)O)NC(=O)[C@@H](NC(=O)[C@@H](N)CCSC)CSCc2cccc(c2)CSC[C@@H](C(=O)N[C@@H](CCCNC(=N)N)C(=O)N[C@H](C(N)=O)C(C)C)NC1=O [Compound R2019, [mXylyl(2,6)]MCE-nMeS-ICRV-NH2] (H-MCE[NMeS]ICRV-NH2; linker 2-6 via mXylylene; N-terminus assumed) | > 10 µM | > 9.1 µM | > 12.5 µM | > 100 µM | 0.0523 µM | > 100 µM | > 21 µM | > 16.4 µM |  |
| CC[C@H](C)[C@@H]1NC(=O)[C@H](CO)NC(=O)[C@@H](C)NC(=O)[C@@H](NC(C)=O)CSCc2cccc(c2)CSC[C@@H](C(=O)N[C@@H](CCCNC(=N)N)C(=O)N[C@H](C(N)=O)C(C)C)NC1=O [Compound R2047, [mXylyl(1,5)]Ac-C-a-SICRV-NH2] (Ac-C[dA]SICRV-NH2; linker 1-5 via mXylylene) | > 100 µM | > 13.8 µM | > 100 µM | > 100 µM |  | > 100 µM | > 100 µM | > 100 µM |  |
